Species: Rattus norvegicus
Assay: Open TG-GATES - Regimen: Single
Assay type: toxicity, organism-based, Sprague-Dawley
Set-up: regimen Single, gender Male, age 6 weeks
Conditions: in vivo, po, route gavage; for APTT / Bas / Eos / Fbg / Hb / Ht / Lym / MCH / MCHC / MCV / Mono / Neu / PT / Plat / RBC / Ret / WBC: tissue Blood; for KIDNEY_L / KIDNEY_R / KIDNEY_TOTAL: tissue Kidney; for LIVER: tissue Liver; for ALP / ALT / AST / BUN / CRE / DBIL / GLC / K / Na / PL / RALB / TBIL / TC / TG / TP / gamma-GTP: tissue Plasma
[1] = 75 mg/kg, 3 h, dose level Middle
[2] = 75 mg/kg, 6 h, dose level Middle
[3] = 75 mg/kg, 9 h, dose level Middle
[4] = 75 mg/kg, 24 h, dose level Middle
[5] = 250 mg/kg, 3 h, dose level High
[6] = 250 mg/kg, 6 h, dose level High
[7] = 250 mg/kg, 9 h, dose level High
[8] = 250 mg/kg, 24 h, dose level High

SMILES: CN1C(=O)CN=C(c2ccccc2)c2cc(Cl)ccc21 [DIAZEPAM]
- TERMINAL_BW [1]: 217.1 g
- APTT [1]: 15.6 s
- Bas [1]: 0%
- Eos [1]: 1.2%
- Fbg [1]: 212.4 mg/dL
- Hb [1]: 13.8 g/dL
- Ht [1]: 41.7%
- Lym [1]: 77.2%
- MCH [1]: 22.1 pg
- MCHC [1]: 33.1%
- MCV [1]: 66.8 fL
- Mono [1]: 6.2%
- Neu [1]: 15.6%
- PT [1]: 12.7 s
- Plat [1]: 103.8 x10_4/uL
- RBC [1]: 624.4 x10_4/ul
- Ret [1]: 8.2%
- WBC [1]: 74.8 x10_2/uL
- KIDNEY_L [1]: 1 g
- KIDNEY_R [1]: 1 g
- KIDNEY_TOTAL [1]: 2 g
- LIVER [1]: 10.1 g
- ALP [1]: 916 IU/L
- ALT [1]: 31.2 IU/L
- AST [1]: 62.6 IU/L
- BUN [1]: 12 mg/dL
- CRE [1]: 0.5 mg/dL
- DBIL [1]: 0.028 mg/dL
- GLC [1]: 187.6 mg/dL
- K [1]: 5.1 meq/L
- Na [1]: 139.6 meq/L
- PL [1]: 133 mg/dL
- RALB [1]: 3.9 g/dL
- TBIL [1]: 0.4 mg/dL
- TC [1]: 73 mg/dL
- TG [1]: 46.8 mg/dL
- TP [1]: 5.5 g/dL
- gamma-GTP [1]: 1.6 IU/L
- TERMINAL_BW [2]: 213.3 g
- APTT [2]: 16.5 s
- Bas [2]: 0%
- Eos [2]: 0.8%
- Fbg [2]: 222.8 mg/dL
- Hb [2]: 13.8 g/dL
- Ht [2]: 41.9%
- Lym [2]: 79.2%
- MCH [2]: 22.3 pg
- MCHC [2]: 33.1%
- MCV [2]: 67.3 fL
- Mono [2]: 7.2%
- Neu [2]: 13.2%
- PT [2]: 12.1 s
- Plat [2]: 105.5 x10_4/uL
- RBC [2]: 621.2 x10_4/ul
- Ret [2]: 8.1%
- WBC [2]: 115.9 x10_2/uL
- KIDNEY_L [2]: 1 g
- KIDNEY_R [2]: 1 g
- KIDNEY_TOTAL [2]: 2 g
- LIVER [2]: 10.3 g
- ALP [2]: 899 IU/L
- ALT [2]: 30.4 IU/L
- AST [2]: 59 IU/L
- BUN [2]: 13 mg/dL
- CRE [2]: 0.5 mg/dL
- DBIL [2]: 0.02 mg/dL
- GLC [2]: 198.2 mg/dL
- K [2]: 5.5 meq/L
- Na [2]: 139.6 meq/L
- PL [2]: 147.8 mg/dL
- RALB [2]: 3.8 g/dL
- TBIL [2]: 0.4 mg/dL
- TC [2]: 77.4 mg/dL
- TG [2]: 78.2 mg/dL
- TP [2]: 5.8 g/dL
- gamma-GTP [2]: 1.6 IU/L
- TERMINAL_BW [3]: 215.6 g
- APTT [3]: 16.4 s
- Bas [3]: 0%
- Eos [3]: 0.8%
- Fbg [3]: 213.8 mg/dL
- Hb [3]: 13.9 g/dL
- Ht [3]: 41.8%
- Lym [3]: 80.2%
- MCH [3]: 21.1 pg
- MCHC [3]: 33.1%
- MCV [3]: 63.8 fL
- Mono [3]: 5.4%
- Neu [3]: 13.8%
- PT [3]: 12.4 s
- Plat [3]: 101.8 x10_4/uL
- RBC [3]: 655.6 x10_4/ul
- Ret [3]: 8.2%
- WBC [3]: 90.1 x10_2/uL
- KIDNEY_L [3]: 1 g
- KIDNEY_R [3]: 1 g
- KIDNEY_TOTAL [3]: 1.9 g
- LIVER [3]: 9.7 g
- ALP [3]: 771 IU/L
- ALT [3]: 33 IU/L
- AST [3]: 62.8 IU/L
- BUN [3]: 14.2 mg/dL
- CRE [3]: 0.6 mg/dL
- DBIL [3]: 0.048 mg/dL
- GLC [3]: 208 mg/dL
- K [3]: 4.5 meq/L
- Na [3]: 140 meq/L
- PL [3]: 143.8 mg/dL
- RALB [3]: 3.8 g/dL
- TBIL [3]: 0.4 mg/dL
- TC [3]: 71 mg/dL
- TG [3]: 80.6 mg/dL
- TP [3]: 5.7 g/dL
- gamma-GTP [3]: 1.4 IU/L
- TERMINAL_BW [4]: 230.6 g
- APTT [4]: 16.2 s
- Bas [4]: 0%
- Eos [4]: 0.8%
- Fbg [4]: 208.2 mg/dL
- Hb [4]: 13.6 g/dL
- Ht [4]: 40.9%
- Lym [4]: 79.4%
- MCH [4]: 21.6 pg
- MCHC [4]: 33.2%
- MCV [4]: 65.1 fL
- Mono [4]: 5.6%
- Neu [4]: 14%
- PT [4]: 12.3 s
- Plat [4]: 103.8 x10_4/uL
- RBC [4]: 628.4 x10_4/ul
- Ret [4]: 8%
- WBC [4]: 115 x10_2/uL
- KIDNEY_L [4]: 1 g
- KIDNEY_R [4]: 1.1 g
- KIDNEY_TOTAL [4]: 2.1 g
- LIVER [4]: 11.2 g
- ALP [4]: 921 IU/L
- ALT [4]: 37.2 IU/L
- AST [4]: 64 IU/L
- BUN [4]: 17.8 mg/dL
- CRE [4]: 0.6 mg/dL
- DBIL [4]: 0.012 mg/dL
- GLC [4]: 199 mg/dL
- K [4]: 5.1 meq/L
- Na [4]: 139.4 meq/L
- PL [4]: 141.6 mg/dL
- RALB [4]: 4 g/dL
- TBIL [4]: 0.4 mg/dL
- TC [4]: 75.6 mg/dL
- TG [4]: 97.4 mg/dL
- TP [4]: 5.8 g/dL
- gamma-GTP [4]: 1.2 IU/L
- TERMINAL_BW [5]: 215.9 g
- APTT [5]: 16.1 s
- Bas [5]: 0%
- Eos [5]: 1%
- Fbg [5]: 213.4 mg/dL
- Hb [5]: 13.6 g/dL
- Ht [5]: 41%
- Lym [5]: 75.8%
- MCH [5]: 22.1 pg
- MCHC [5]: 33.1%
- MCV [5]: 66.7 fL
- Mono [5]: 5.6%
- Neu [5]: 17.6%
- PT [5]: 12.7 s
- Plat [5]: 109.5 x10_4/uL
- RBC [5]: 615 x10_4/ul
- Ret [5]: 8.8%
- WBC [5]: 72.4 x10_2/uL
- KIDNEY_L [5]: 1 g
- KIDNEY_R [5]: 1 g
- KIDNEY_TOTAL [5]: 2 g
- LIVER [5]: 10.3 g
- ALP [5]: 734 IU/L
- ALT [5]: 34.2 IU/L
- AST [5]: 67.4 IU/L
- BUN [5]: 12.2 mg/dL
- CRE [5]: 0.5 mg/dL
- DBIL [5]: 0.028 mg/dL
- GLC [5]: 196.2 mg/dL
- K [5]: 4.7 meq/L
- Na [5]: 140 meq/L
- PL [5]: 144.4 mg/dL
- RALB [5]: 3.7 g/dL
- TBIL [5]: 0.4 mg/dL
- TC [5]: 79.4 mg/dL
- TG [5]: 64.2 mg/dL
- TP [5]: 5.7 g/dL
- gamma-GTP [5]: 1.4 IU/L
- TERMINAL_BW [6]: 216.7 g
- APTT [6]: 16.1 s
- Bas [6]: 0%
- Eos [6]: 0.8%
- Fbg [6]: 240.4 mg/dL
- Hb [6]: 14.3 g/dL
- Ht [6]: 43.4%
- Lym [6]: 77.2%
- MCH [6]: 21.7 pg
- MCHC [6]: 32.9%
- MCV [6]: 65.9 fL
- Mono [6]: 6.4%
- Neu [6]: 16%
- PT [6]: 12.3 s
- Plat [6]: 120.4 x10_4/uL
- RBC [6]: 659.8 x10_4/ul
- Ret [6]: 8.4%
- WBC [6]: 85.8 x10_2/uL
- KIDNEY_L [6]: 1 g
- KIDNEY_R [6]: 1 g
- KIDNEY_TOTAL [6]: 2 g
- LIVER [6]: 10.3 g
- ALP [6]: 823.6 IU/L
- ALT [6]: 27.8 IU/L
- AST [6]: 68 IU/L
- BUN [6]: 15.8 mg/dL
- CRE [6]: 0.6 mg/dL
- DBIL [6]: 0.008 mg/dL
- GLC [6]: 210.6 mg/dL
- K [6]: 5.6 meq/L
- Na [6]: 141.6 meq/L
- PL [6]: 161 mg/dL
- RALB [6]: 4.1 g/dL
- TBIL [6]: 0.5 mg/dL
- TC [6]: 85.6 mg/dL
- TG [6]: 74.4 mg/dL
- TP [6]: 6.2 g/dL
- gamma-GTP [6]: 1.8 IU/L
- TERMINAL_BW [7]: 217 g
- APTT [7]: 16.2 s
- Bas [7]: 0%
- Eos [7]: 1%
- Fbg [7]: 240.5 mg/dL
- Hb [7]: 14.2 g/dL
- Ht [7]: 43%
- Lym [7]: 80.5%
- MCH [7]: 21.8 pg
- MCHC [7]: 33%
- MCV [7]: 66 fL
- Mono [7]: 6.2%
- Neu [7]: 12%
- PT [7]: 12.2 s
- Plat [7]: 118.3 x10_4/uL
- RBC [7]: 652.2 x10_4/ul
- Ret [7]: 8.2%
- WBC [7]: 104.3 x10_2/uL
- KIDNEY_L [7]: 1 g
- KIDNEY_R [7]: 1 g
- KIDNEY_TOTAL [7]: 2 g
- LIVER [7]: 10 g
- ALP [7]: 725 IU/L
- ALT [7]: 25.8 IU/L
- AST [7]: 67 IU/L
- BUN [7]: 16.5 mg/dL
- CRE [7]: 0.6 mg/dL
- DBIL [7]: 0.0325 mg/dL
- GLC [7]: 214.8 mg/dL
- K [7]: 4.8 meq/L
- Na [7]: 141.8 meq/L
- PL [7]: 147.5 mg/dL
- RALB [7]: 3.8 g/dL
- TBIL [7]: 0.4 mg/dL
- TC [7]: 84.5 mg/dL
- TG [7]: 70.8 mg/dL
- TP [7]: 5.8 g/dL
- gamma-GTP [7]: 1.2 IU/L
- TERMINAL_BW [8]: 235.1 g
- APTT [8]: 15.6 s
- Bas [8]: 0%
- Eos [8]: 0.8%
- Fbg [8]: 211 mg/dL
- Hb [8]: 13.5 g/dL
- Ht [8]: 40.5%
- Lym [8]: 75%
- MCH [8]: 21.9 pg
- MCHC [8]: 33.4%
- MCV [8]: 65.4 fL
- Mono [8]: 7.6%
- Neu [8]: 16.6%
- PT [8]: 12.2 s
- Plat [8]: 103.7 x10_4/uL
- RBC [8]: 620.4 x10_4/ul
- Ret [8]: 8.3%
- WBC [8]: 133.5 x10_2/uL
- KIDNEY_L [8]: 1.1 g
- KIDNEY_R [8]: 1.1 g
- KIDNEY_TOTAL [8]: 2.2 g
- LIVER [8]: 12 g
- ALP [8]: 1023.4 IU/L
- ALT [8]: 37 IU/L
- AST [8]: 57.4 IU/L
- BUN [8]: 14.4 mg/dL
- CRE [8]: 0.5 mg/dL
- DBIL [8]: 0.006 mg/dL
- GLC [8]: 201.6 mg/dL
- K [8]: 5.1 meq/L
- Na [8]: 140 meq/L
- PL [8]: 167.4 mg/dL
- RALB [8]: 4 g/dL
- TBIL [8]: 0.4 mg/dL
- TC [8]: 91.6 mg/dL
- TG [8]: 105.8 mg/dL
- TP [8]: 5.9 g/dL
- gamma-GTP [8]: 1.4 IU/L

From ChEMBL document CHEMBL3885861, “Open TG-GATES”
